Reference: paper PMC3954708 (Bioorganic & medicinal chemistry letters, 2013)
Values belong to the compound of their own block, whether it stands above or below them.

Columns and labels:
UT-B [1] = target: T1, UT-B (Homo sapiens, UniProt Q13336); experiment: erythrocyte lysis assay for UT-B inhibition; format: cell-based, mouse
T1 sequence (Q13336 1-389): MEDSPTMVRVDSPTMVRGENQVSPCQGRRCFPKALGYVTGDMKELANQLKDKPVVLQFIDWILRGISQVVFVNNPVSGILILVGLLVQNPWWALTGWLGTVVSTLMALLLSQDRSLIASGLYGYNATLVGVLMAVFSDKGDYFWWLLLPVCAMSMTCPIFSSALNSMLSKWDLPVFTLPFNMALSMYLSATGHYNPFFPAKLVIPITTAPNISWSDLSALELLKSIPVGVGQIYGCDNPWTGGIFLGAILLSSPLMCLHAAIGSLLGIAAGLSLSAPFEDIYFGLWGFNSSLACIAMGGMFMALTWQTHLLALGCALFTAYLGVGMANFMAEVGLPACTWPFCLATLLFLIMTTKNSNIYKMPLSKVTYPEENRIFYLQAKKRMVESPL

[2] = cited from earlier work
[3] = microsomal stability with rat liver microsomes and NADPH, LCMS analysis; format: in vitro ADME; settings: liver microsomes
[4] = administration to mice; cited from earlier work
UT-B [5] = settings: cited from earlier work
[6] = IC50 (UT-B inhibition activity), mouse erythrocyte lysis assay (n = 3), fit to single-site saturation model
[7] = IC50 (inhibitory potency, abstract), UT-B inhibition

- IC50 (UT-B [1]; [6]): > 800 nM
SMILES: CC(F)(F)c1ccc(S(=O)(=O)c2nnn3c2nc(NCc2ccccc2)c2sccc23)cc1 [Compound 4d]

- IC50 (UT-B [1]; [7]): ~40 nM
SMILES: CC(F)(F)c1ccc(S(=O)(=O)c2nnn3c2nc(NCc2ccsc2)c2sccc23)cc1 [Compound 4b]

SMILES: CC(F)(F)c1ccc(S(=O)(=O)c2nnn3c2nc(NCc2cccs2)c2sccc23)cc1 [Compound 1c]
- microsomal degradation / hepatic oxidation [2]: resisted microsomal degradation
- remaining at 0.5 h [3]: 96%

SMILES: CCc1ccc(S(=O)(=O)c2nnn3c2nc(NCc2cccs2)c2sccc23)cc1 [Compound 1a]
- effect on urine osmolality [4]: reduced urine osmolality
- effect on urine output [4]: increased urine output
- mechanism of UT-B inhibition (UT-B [5]): competitive mechanism
- microsomal degradation / hepatic oxidation [2]: underwent rapid oxidation by hepatic enzymes

- IC50 (UT-B [1]; [6]): > 800 nM
SMILES: CC(F)(F)c1ccc(S(=O)(=O)c2nnn3c2nc(NCC2CCC2)c2sccc23)cc1 [Compound 4f]

- IC50 (UT-B [1]; [6]): > 800 nM
SMILES: CC(F)(F)c1ccc(S(=O)(=O)c2nnn3c2nc(NCC2CC2)c2sccc23)cc1 [Compound 4e]

- IC50 (UT-B [1]; [7]): ~40 nM
SMILES: Cc1csc(CNc2nc3c(S(=O)(=O)c4ccc(C(C)(F)F)cc4)nnn3c3ccsc23)c1 [Compound 4a]
